Test results: patent publication US12084437B2, “Halo-substituted piperidines as orexin receptor modulators” (AstraZeneca AB, priority 2016, dated 2024)
pIC50: −log10 of the molar value. Values joined by “and” are separate entries in the source; they are usually repeats but may differ in a detail not shown here. Equal entries are not always repeated.

Key:
OX1 = target: T1, OX1 (Homo sapiens, UniProt O43613); assay: Orexin receptor cell-based functional assay, [Ca2+]i by FLIPR, CHO-OX1 cells; conditions: FLIPR calcium, antagonism of EC90 of [OX], read-out: OXI, IC50
T1 construct: expressed in transfected cells; host or cells: CHO (CHO-OX1)
T1 sequence (O43613 1-425): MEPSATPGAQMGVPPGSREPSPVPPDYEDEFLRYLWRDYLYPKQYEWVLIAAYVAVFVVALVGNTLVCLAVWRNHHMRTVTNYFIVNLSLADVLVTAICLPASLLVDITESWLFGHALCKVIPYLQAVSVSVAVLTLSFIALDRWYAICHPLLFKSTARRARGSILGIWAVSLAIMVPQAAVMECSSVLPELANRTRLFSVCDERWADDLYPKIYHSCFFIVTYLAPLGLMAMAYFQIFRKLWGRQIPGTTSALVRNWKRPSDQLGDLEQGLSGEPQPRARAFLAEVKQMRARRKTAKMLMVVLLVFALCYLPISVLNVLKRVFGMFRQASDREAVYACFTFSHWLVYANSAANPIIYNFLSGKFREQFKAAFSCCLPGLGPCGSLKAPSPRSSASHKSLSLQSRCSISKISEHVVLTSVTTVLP

OX2 = target: T2, OX2 (Homo sapiens, UniProt O43614); assay: Orexin receptor cell-based functional assay, [Ca2+]i by FLIPR, CHO-OX2 cells; conditions: FLIPR calcium, antagonism of EC90 of [OX]
T2 construct: expressed in transfected cells; host or cells: CHO (CHO-OX2)
T2 sequence (O43614 1-444): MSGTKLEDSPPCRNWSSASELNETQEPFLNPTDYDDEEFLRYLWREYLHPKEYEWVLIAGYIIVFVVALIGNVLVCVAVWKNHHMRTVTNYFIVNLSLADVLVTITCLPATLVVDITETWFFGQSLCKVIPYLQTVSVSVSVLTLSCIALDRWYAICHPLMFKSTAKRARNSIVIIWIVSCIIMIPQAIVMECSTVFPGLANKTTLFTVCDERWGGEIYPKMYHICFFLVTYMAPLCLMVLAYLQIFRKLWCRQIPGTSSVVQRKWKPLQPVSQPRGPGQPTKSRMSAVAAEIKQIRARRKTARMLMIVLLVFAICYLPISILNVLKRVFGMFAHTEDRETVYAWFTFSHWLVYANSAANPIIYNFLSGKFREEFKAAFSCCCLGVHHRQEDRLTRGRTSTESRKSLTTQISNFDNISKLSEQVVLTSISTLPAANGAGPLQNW
Outline: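 CHO cells expressing human OX1 or OX2 (20,000/well, grown overnight) were loaded with Calcium6 dye plus 2.5 mM probenecid for 2 h at 37 °C, then preincubated 30 min with compound (0.1 nM–10 µM). FLIPR fluorescence (ex 488/em 540 nm) was tracked before and after an EC90 orexin challenge.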

pIC50 (OX1)	pIC50 (OX2)	Compound
6.72	< 5.30	C[C@@H]1CC(F)(F)CN(C(=O)c2cc(F)ccc2-n2nccn2)[C@@H]1CNc1ncc(C(F)(F)F)cn1 [Compound 1, ((2S,3R)-5,5-difluoro-3-methyl-2-(((5-(trifluoromethyl)pyrimidin-2-yl)amino)methyl)piperidin-1-yl)(5-fluoro-2-(2H-1,2,3-triazol-2-yl)phenyl)methanone]
7.54	< 5.30	Cc1ccc(C#CC2CC2)c(C(=O)N2CC(F)(F)C[C@@H](C)[C@H]2CNc2ncc(C(F)(F)F)cn2)n1 [Compound 234, (3-(cyclopropylethynyl)-6-methylpyridin-2-yl)((2S,3R)-5,5-difluoro-3-methyl-2-(((5-(trifluoromethyl)pyrimidin-2-yl)amino)methyl)piperidin-1-yl)methanone]
6.92	< 5.30	Cc1cnc(-c2cn(C)nc2C(=O)N2CC(F)(F)C[C@@H](C)[C@H]2CNc2ncc(C(F)(F)F)cn2)nc1 [Compound 219, ((2S,3R)-5,5-difluoro-3-methyl-2-(((5-(trifluoromethyl)pyrimidin-2-yl)amino)methyl)piperidin-1-yl)(1-methyl-4-(5-methylpyrimidin-2-yl)-1H-pyrazol-3-yl)methanone]
7.70	< 5.30	Cc1nc(C(=O)N2CC(F)(F)C[C@@H](C)[C@H]2CNc2ncc(Cl)cn2)c(-c2ncccn2)s1 [Compound 50]
7.28	< 5.30	C[C@@H]1CC(F)(F)CN(C(=O)c2cc(C#N)ccc2-n2nccn2)[C@@H]1CNc1ncc(C(F)(F)F)cn1 [Compound 14]
8.70	< 5.30	COc1ccc(-c2sc(C)nc2C(=O)N2CC(F)(F)C[C@@H](C)[C@H]2CNc2ncc(C(F)(F)F)cn2)nc1 [Compound 78]
7.15	< 5.30	C[C@@H]1CC(F)(F)CN(C(=O)c2cn(C)nc2-c2ccccc2)[C@@H]1CNc1ncc(Cl)cn1 [Compound 254]
8.30	< 5.30	C[C@@H]1CC(F)(F)CN(C(=O)c2nn(C)cc2-c2ncc(F)cn2)[C@@H]1CNc1ncc(C(F)(F)F)cc1F [Compound 242, ((2S,3R)-5,5-difluoro-2-(((3-fluoro-5-(trifluoromethyl)pyridin-2-yl)amino)methyl)-3-methylpiperidin-1-yl)(4-(5-fluoropyrimidin-2-yl)-1-methyl-1H-pyrazol-3-yl)methanone]
7.92	< 5.30	Cc1ccc(-c2ncccn2)c(C(=O)N2CC(F)(F)C[C@@H](C)[C@H]2CNc2ccc(C(F)(F)F)cn2)n1 [Compound 183, ((2S,3R)-5,5-difluoro-3-methyl-2-(((5-(trifluoromethyl)pyridin-2-yl)amino)methyl)piperidin-1-yl)(6-methyl-3-(pyrimidin-2-yl)pyridin-2-yl)methanone]
8.30	5.95	Cc1nc(C(=O)N2CC(F)(F)C[C@@H](C)[C@H]2CNc2ncc(C(F)(F)F)cn2)c(-c2cccc(F)c2)s1 [Compound 67]
8.15	< 5.30	Cc1ccc(-n2ncc(C)n2)c(C(=O)N2CC(F)(F)C[C@@H](C)[C@H]2CNc2ncc(C(F)(F)F)cn2)c1 [Compound 7]
6.41	< 5.30	Cc1ccccc1-c1cn(C)nc1C(=O)N1CC(F)(F)C[C@@H](C)[C@H]1CNc1ncc(C(F)(F)F)cn1 [Compound 24]
8.52	< 5.30	Cc1c(-c2ncc(F)cn2)c(C(=O)N2CC(F)(F)C[C@@H](C)[C@H]2CNc2ncc(C(F)(F)F)cn2)nn1C [Compound 264, ((2S,3R)-5,5-difluoro-3-methyl-2-(((5-(trifluoromethyl)pyrimidin-2-yl)amino)methyl)piperidin-1-yl)(4-(5-fluoropyrimidin-2-yl)-1,5-dimethyl-1H-pyrazol-3-yl)methanone]
7.96	< 5.30	COc1cccc(-c2sc(C)nc2C(=O)N2CC(F)(F)C[C@@H](C)[C@H]2CNc2cnc(C(F)(F)F)cn2)n1 [Compound 151]
8.40 and 8.70	< 5.30	COc1ccc(-c2cn(C)nc2C(=O)N2CC(F)(F)C[C@@H](C)[C@H]2CNc2cnc(C(F)(F)F)cn2)cc1 [Compound 125]
